Assays:
Type in all cases: cell-based
[1] = tested on: bovine aortic vascular endothelial cells; test: Lumen formation test (cell shrinkage), cell pattern sandwiched between substrate and GFR Matrigel (configuration of FIG. 3); design: key: ∘: Large inhibition effect; Δ: Small inhibition effect; x: No inhibition effect; conditions: inhibitor previously added; shrinkage of multiple cells observed, GFR Matrigel
Description: An autoclave-sterilized substrate was arranged within a culture container and then an appropriate amount of MEM medium containing 5% fetal calf serum was added. 2.0×10^5 bovine aortic vascular endothelial cells were seeded per substrate. After 72 hours of culture, cells adhered only to oxidatively degraded regions and reached confluency on the lines each having a width of 60 μm.
200 μl of ice-cooled Growth Factor Reduced (GFR) Matrigel (Becton, Dickinson and Company) was spread over a culture container and then allowed to stand at room temperature for approximately 1 minute. The substrate was gently placed with its cell adhesion face down onto the matrigel. The resultant was allowed to stand for approximately 5 minutes while maintaining this condition. After complete gelling, MEM medium containing 5% fetal calf serum was added and then the substrate was immersed in the medium. The culture container was transferred into an incubator (37° C., 5% CO2) and then cells were cultured while being sandwiched between a substrate and matrigel. […] This is a phenomenon that is characteristically observed when vascular endothelial cells undergo lumen formation in response to differentiation signals coming from the extracellular matrix. When a vascularization inhibitor had been previously added to the three-dimensional culture system, shrinkage of multiple cells was inhibited or not inhibited according to the relevant pharmacologic action (Table 1). This means that the effect of a drug on lumen formation can be efficiently tested via observation of cell shrinkage that is observed at the initial stage of differentiation. This test method could also be performed for normal human umbilical vein endothelial cells in completely the same manner.

[2] = tested on: Normal human (adult) dermal fibroblasts; test: Cell migration and proliferation of linear cell pattern embedded in collagen gel (configuration of FIG. 3); conditions: 10 μM in culture solution; observed at 3, 6, 9 and 21 hours; compared with culture solution and DMSO systems
Description: The above dish was sterilized with 70% ethanol. Normal human (adult) dermal fibroblasts (KF-4109, Cascade Biologics) dispersed in a culture solution (basal medium M-106-500S, additive agent KE-6350, and Cascade Biologics/KURABO) was seeded at 4×10^5 cells per dish. Cells were cultured using an incubator under conditions of 37° C. and 5% CO2 for 18 hours. A linear pattern formed by cells that had adhered was obtained.
Cell aggregates were embedded into gel that had been prepared using the collagen gel kit used in Example 5 and then three-dimensional culture was performed with the configuration of FIG. 3. After 30 minutes of gelling at 37° C., three types of culture were performed using (1) a system containing the above culture solution, (2) a system containing a culture solution prepared by adding 10 μM inhibitor PP2 to the above culture solution, and (3) a system containing a culture solution containing DMSO with the same concentration as that of DMSO (used as a solvent for preparing 1 mM stock solution of PP2) contained in the above-prepared culture solution containing PP2.

[3] = tested on: bovine aortic vascular endothelial cells; test: Vascularization test, three-dimensional culture of cell pattern in collagen gel (configuration of FIG. 2); conditions: 50 μM added to three-dimensional culture system, medium with proliferation factors
Description: An autoclave-sterilized substrate was arranged within a culture container and then an appropriate amount of MEM medium containing 5% fetal calf serum was added. 2.0×10^5 bovine aortic vascular endothelial cells were seeded per substrate. After 48 hours of culture within an incubator (37° C., 5% CO2), cells adhered only to oxidatively degraded regions and reached confluency on the lines each having a width of 60 μm.
A collagen solution was prepared on ice using a collagen gel culture kit (Cellmatrix I-A, Nitta gelatin). 500 μl of the solution was spread flatly over a 28 mm×33 mm well, followed by 10 minutes of gelling at 37° C. 2 ml of MEM medium containing 5% fetal calf serum was added to the gel. The substrate was caused to sink while upside-down in the medium, so that cells that had adhered to the substrate were caused to come into contact with collagen gel at the bottom. After 4 hours of culture within an incubator, the substrate was carefully removed using a pair of tweezers. […] The medium was removed by suction, 250 μl of the collagen solution was applied in layers to the cells, and then gelling was performed at 37° C. for 10 minutes. […]

| SMILES | Inhibition effect (inhibiting lumen formation) [1] | cell migration [2] | cell proliferation [2] | vascularization [3] |
| --- | --- | --- | --- | --- |
| N=C(N)NC(=O)c1nc(Cl)c(N)nc1N [Amiloride] | x | – | – | – |
| O=c1cc(N2CCOCC2)oc2c(-c3ccccc3)cccc12 [LY294002] | Δ | – | – | – |
| CN(C)c1ccc(O)c2c1C[C@H]1C[C@H]3[C@H](N(C)C)C(O)=C(C(N)=O)C(=O)[C@@]3(O)C(O)=C1C2=O [Minocycline] | x | – | – | – |
| CC(C)(C)n1nc(-c2ccc(Cl)cc2)c2c(N)ncnc21 [PP2] | ∘ | significantly suppressed | significantly suppressed | – |
| Cc1ccc(C(=O)Nc2ccc(S(=O)(=O)O)c3cc(S(=O)(=O)O)cc(S(=O)(=O)O)c23)cc1NC(=O)c1cccc(NC(=O)Nc2cccc(C(=O)Nc3cc(C(=O)Nc4ccc(S(=O)(=O)O)c5cc(S(=O)(=O)O)cc(S(=O)(=O)O)c45)ccc3C)c2)c1 [Suramin] | x | – | – | completely inhibited |
| C[C@@H](N)[C@H]1CC[C@H](C(=O)Nc2ccncc2)CC1 [Y27632] | x | – | – | – |
